Reference: PubChem BioAssay AID1259407 (Chemical Carcinogenesis Research Information System (CCRIS), 2018)
The source made the active and inactive calls. The rule behind the calls is not given here.

Test system: CCRIS mutagenicity, Ames/micronucleus/aberration tests
Assay: CCRIS mutagenicity studies

Q: For `O`, which mutagenic call (End Point: In vitro chromosomal aberrations, Test System: D824 human dental pulp cells, Metabolic Activation: None) is on record?
A: The mutagenic call was “inactive; negative”.

Q: What about the mutagenic call (End Point: In vitro chromosomal aberrations, Test System: D824 human dental pulp cells, Metabolic Activation: Rat, Liver, Postmitochondrial supernate (5%)) of the same molecule?
A: The mutagenic call was “inactive; negative”.

Q: What about the mutagenic call (Test System: AMES SALMONELLA TYPHIMURIUM, Strain/Indicator: TA97, Metabolic Activation: HAMSTER, LIVER, S-9, AROCLOR 1254 (10 OR 30%), Method: PREINCUBATION) of the same molecule?
A: Its mutagenic call is “inactive; negative”.

Q: And the mutagenic call (Test System: AMES SALMONELLA TYPHIMURIUM, Strain/Indicator: TA97, Metabolic Activation: NONE, Method: PREINCUBATION)?
A: The mutagenic call was “inactive; negative”.

Q: And the mutagenic call (Test System: AMES SALMONELLA TYPHIMURIUM, Strain/Indicator: TA97, Metabolic Activation: RAT, LIVER, S-9, AROCLOR 1254 (10 OR 30%), Method: PREINCUBATION)?
A: The mutagenic call was “inactive; negative”.

Q: And the mutagenic call (Test System: AMES SALMONELLA TYPHIMURIUM, Strain/Indicator: TA97, Metabolic Activation: RAT, LIVER, S-9, AROCLOR 1254, Method: PREINCUBATION)?
A: Its mutagenic call is “inactive; negative”.

Q: What about the mutagenic call (Test System: AMES SALMONELLA TYPHIMURIUM, Strain/Indicator: TA98, Metabolic Activation: HAMSTER, LIVER, S-9, AROCLOR 1254 (10 OR 30%), Method: PREINCUBATION) of the same molecule?
A: The mutagenic call was “inactive; negative”.

Q: What about the mutagenic call (Test System: AMES SALMONELLA TYPHIMURIUM, Strain/Indicator: TA98, Metabolic Activation: NONE, Method: PREINCUBATION) of the same molecule?
A: The mutagenic call was “inactive; negative”.

Q: And the mutagenic call (Test System: AMES SALMONELLA TYPHIMURIUM, Strain/Indicator: TA98, Metabolic Activation: RAT LIVER S-9, PHENOBARBITAL AND BETA-NAPHTHOFLAVONE, Method: PREINCUBATION)?
A: Its mutagenic call is “inactive; negative”.

Q: And the mutagenic call (Test System: AMES SALMONELLA TYPHIMURIUM, Strain/Indicator: TA98, Metabolic Activation: RAT, LIVER, S-9, AROCLOR 1254 (10 OR 30%), Method: PREINCUBATION)?
A: The mutagenic call was “inactive; negative”.

Q: And the mutagenic call (Test System: AMES SALMONELLA TYPHIMURIUM, Strain/Indicator: TA98, Metabolic Activation: RAT, LIVER, S-9, PHENOBARBITAL AND BETA-NAPHTHOFLAVONE, Method: PREINCUBATION)?
A: The mutagenic call was “inactive; negative”.

Q: And the mutagenic call (Test System: AMES SALMONELLA TYPHIMURIUM, Strain/Indicator: TA100, Metabolic Activation: HAMSTER, LIVER, S-9, AROCLOR 1254 (10 OR 30%), Method: PREINCUBATION)?
A: The mutagenic call was “inactive; negative”.

Q: And the mutagenic call (Test System: AMES SALMONELLA TYPHIMURIUM, Strain/Indicator: TA100, Metabolic Activation: NONE, Method: PREINCUBATION)?
A: Its mutagenic call is “inactive; negative”.

Q: And the mutagenic call (Test System: AMES SALMONELLA TYPHIMURIUM, Strain/Indicator: TA100, Metabolic Activation: RAT LIVER S-9, PHENOBARBITAL AND BETA-NAPHTHOFLAVONE, Method: PREINCUBATION)?
A: The mutagenic call was “inactive; negative”.

Q: What about the mutagenic call (Test System: AMES SALMONELLA TYPHIMURIUM, Strain/Indicator: TA100, Metabolic Activation: RAT, LIVER, S-9, AROCLOR 1254 (10 OR 30%), Method: PREINCUBATION) of the same molecule?
A: The mutagenic call was “inactive; negative”.

Q: What about the mutagenic call (Test System: AMES SALMONELLA TYPHIMURIUM, Strain/Indicator: TA100, Metabolic Activation: RAT, LIVER, S-9, PHENOBARBITAL AND BETA-NAPHTHOFLAVONE, Method: PREINCUBATION) of the same molecule?
A: The mutagenic call was “inactive; negative”.

Q: What about the mutagenic call (Test System: AMES SALMONELLA TYPHIMURIUM, Strain/Indicator: TA102, Metabolic Activation: NONE, Method: PREINCUBATION) of the same molecule?
A: The mutagenic call was “inactive; negative”.

Q: What about the mutagenic call (Test System: AMES SALMONELLA TYPHIMURIUM, Strain/Indicator: TA102, Metabolic Activation: RAT, LIVER, S-9, AROCLOR 1254, Method: PREINCUBATION) of the same molecule?
A: Its mutagenic call is “inactive; negative”.

Q: What about the mutagenic call (Test System: AMES SALMONELLA TYPHIMURIUM, Strain/Indicator: TA104, Metabolic Activation: NONE, Method: PREINCUBATION) of the same molecule?
A: The mutagenic call was “inactive; negative”.

Q: And the mutagenic call (Test System: AMES SALMONELLA TYPHIMURIUM, Strain/Indicator: TA104, Metabolic Activation: RAT, LIVER, S-9, SODIUM PHENOBARBITAL AND 5,6-BENZOFLAVONE, Method: PREINCUBATION)?
A: Its mutagenic call is “inactive; negative”.

Q: What about the mutagenic call (Test System: AMES SALMONELLA TYPHIMURIUM, Strain/Indicator: TA1535, Metabolic Activation: HAMSTER, LIVER, S-9, AROCLOR 1254 (10 OR 30%), Method: PREINCUBATION) of the same molecule?
A: The mutagenic call was “inactive; negative”.

Q: And the mutagenic call (Test System: AMES SALMONELLA TYPHIMURIUM, Strain/Indicator: TA1535, Metabolic Activation: NONE, Method: PREINCUBATION)?
A: The mutagenic call was “inactive; negative”.

Q: What about the mutagenic call (Test System: AMES SALMONELLA TYPHIMURIUM, Strain/Indicator: TA1535, Metabolic Activation: RAT LIVER S-9, PHENOBARBITAL AND BETA-NAPHTHOFLAVONE, Method: PREINCUBATION) of the same molecule?
A: Its mutagenic call is “inactive; negative”.

Q: And the mutagenic call (Test System: AMES SALMONELLA TYPHIMURIUM, Strain/Indicator: TA1535, Metabolic Activation: RAT, LIVER, S-9, AROCLOR 1254 (10 OR 30%), Method: PREINCUBATION)?
A: The mutagenic call was “inactive; negative”.

Q: What about the mutagenic call (Test System: AMES SALMONELLA TYPHIMURIUM, Strain/Indicator: TA1535, Metabolic Activation: RAT, LIVER, S-9, PHENOBARBITAL AND BETA-NAPHTHOFLAVONE, Method: PREINCUBATION) of the same molecule?
A: Its mutagenic call is “inactive; negative”.

Q: And the mutagenic call (Test System: AMES SALMONELLA TYPHIMURIUM, Strain/Indicator: TA1537, Metabolic Activation: HAMSTER, LIVER, S-9, AROCLOR 1254 (30%), Method: PREINCUBATION)?
A: Its mutagenic call is “inactive; negative”.

Q: And the mutagenic call (Test System: AMES SALMONELLA TYPHIMURIUM, Strain/Indicator: TA1537, Metabolic Activation: NONE, Method: PREINCUBATION)?
A: Its mutagenic call is “inactive; negative”.

Q: What about the mutagenic call (Test System: AMES SALMONELLA TYPHIMURIUM, Strain/Indicator: TA1537, Metabolic Activation: RAT LIVER S-9, PHENOBARBITAL AND BETA-NAPHTHOFLAVONE, Method: PREINCUBATION) of the same molecule?
A: The mutagenic call was “inactive; negative”.

Q: And the mutagenic call (Test System: AMES SALMONELLA TYPHIMURIUM, Strain/Indicator: TA1537, Metabolic Activation: RAT, LIVER, S-9, AROCLOR 1254 (30%), Method: PREINCUBATION)?
A: The mutagenic call was “inactive; negative”.

Q: And the mutagenic call (Test System: AMES SALMONELLA TYPHIMURIUM, Strain/Indicator: TA1537, Metabolic Activation: RAT, LIVER, S-9, PHENOBARBITAL AND BETA-NAPHTHOFLAVONE, Method: PREINCUBATION)?
A: Its mutagenic call is “inactive; negative”.

Q: What about the mutagenic call (Test System: AMES SALMONELLA TYPHIMURIUM, Strain/Indicator: TA1538, Metabolic Activation: NONE, Method: PREINCUBATION) of the same molecule?
A: Its mutagenic call is “inactive; negative”.

Q: What about the mutagenic call (Test System: AMES SALMONELLA TYPHIMURIUM, Strain/Indicator: TA1538, Metabolic Activation: RAT LIVER S-9, PHENOBARBITAL AND BETA-NAPHTHOFLAVONE, Method: PREINCUBATION) of the same molecule?
A: The mutagenic call was “inactive; negative”.

Q: And the mutagenic call (Test System: E. COLI, Strain/Indicator: WP2UVRA/PKM101, Metabolic Activation: NONE, Method: PREINCUBATION)?
A: The mutagenic call was “inactive; negative”.

Q: And the mutagenic call (Test System: E. COLI, Strain/Indicator: WP2UVRA/PKM101, Metabolic Activation: RAT, LIVER, S-9, SODIUM PHENOBARBITAL AND 5,6-BENZOFLAVONE, Method: PREINCUBATION)?
A: The mutagenic call was “inactive; negative”.

Q: And the mutagenic call (Test System: E. COLI, Strain/Indicator: WP2UVRA, Metabolic Activation: NONE, Method: PREINCUBATION)?
A: Its mutagenic call is “inactive; negative”.

Q: And the mutagenic call (Test System: E. COLI, Strain/Indicator: WP2UVRA, Metabolic Activation: RAT, LIVER, S-9, SODIUM PHENOBARBITAL AND 5,6-BENZOFLAVONE, Method: PREINCUBATION)?
A: The mutagenic call was “inactive; negative”.

Q: And the mutagenic call (Test System: E.COLI, Strain/Indicator: WP2UVRA, Metabolic Activation: NONE, Method: PREINCUBATION)?
A: The mutagenic call was “inactive; negative”.

Q: And the mutagenic call (Test System: E.COLI, Strain/Indicator: WP2UVRA, Metabolic Activation: RAT LIVER S-9, PHENOBARBITAL AND BETA-NAPHTHOFLAVONE, Method: PREINCUBATION)?
A: Its mutagenic call is “inactive; negative”.

Q: And the mutagenic call (Test System: MOUSE LYMPHOMA, Strain/Indicator: L5178Y (TK+/TK-), Metabolic Activation: NONE, Method: SUSPENSION/PLATE)?
A: Its mutagenic call is “inactive; negative”.

Q: What about the mutagenic call (Test System: MOUSE LYMPHOMA, Strain/Indicator: L5178Y (TK+/TK-), Metabolic Activation: RAT, LIVER, S-9, AROCLOR 1254, Method: SUSPENSION/PLATE) of the same molecule?
A: The mutagenic call was “active; positive”.
